One compound from ChEMBL document CHEMBL5215006, “Antitumor Activity of Piceamycin by Upregulation of N-Myc Downstream-Regulated Gene 1 in Human Colorectal Cancer Cells” (J Nat Prod, 2022) can be followed below.

Test [1] deals with SW480. The test can be described thus: Inhibition of colony formation in human SW480 cells at 0.35 to 1.4 uM incubated for 72 hrs by crystal violet staining based assay. In kind it is functional, cell-based. The settings on record: dose 0.35-1.4 µM, DDE = dose-dependent effect.
Test [2] deals with HCT-116. The test can be described thus: Cell cycle arrest in human HCT-116 cells assessed as accumulation at G0/G1 phase at 0.3 uM incubated for 24 hrs by RNaseA/propidium iodide staining based flow cytometry (reference value: 48.44 %). In kind it is functional. (Flow cytometry measures light scatter and fluorescence of single cells or particles in a stream.)
In test [3] the test system is SW480. The test can be described thus: Cell cycle arrest in human SW480 cells assessed as accumulation at S phase at 0.7 uM incubated for 24 hrs by RNaseA/propidium iodide staining based flow cytometry (reference value: 16.7 %). In kind it is functional.
Test [4] has as its system SW480. Kind of test: Cell cycle arrest in human SW480 cells assessed as accumulation at G2/M phase at 1.4 uM incubated for 24 hrs by RNaseA/propidium iodide staining based flow cytometry (reference value: 24.74 %). The test is classed as functional.
In test [5] the test system is SW480. The test can be described thus: Induction of apoptosis in human SW480 cells assessed as early apoptotic cells at 0.7 uM incubated for 48 hrs by Annexin V-FITC/PI staining based flow cytometry analysis (Rvb= 2.07%). The test is classed as functional.
In test [6] the test system is SW480. The test can be described thus: Induction of apoptosis in human SW480 cells assessed as necrotic cells at 1.4 uM incubated for 48 hrs by Annexin V-FITC/PI staining based flow cytometry analysis (Rvb= 0.07%). In kind it is functional.
Test [7] concerns HCT-116. Kind of test: Inhibition of cell migration in human HCT-116 cells at 0.075 to 0.3 uM incubated for 24 hrs by wound-healing assay. In kind it is functional, cell-based. The settings on record: dose 0.075-0.3 µM, DDE = dose-dependent effect.
Test [8] relates to SW480. Kind of test: Inhibition of cell migration in human SW480 cells at 0.35 to 1.4 uM incubated for 24 hrs by wound-healing assay. In kind it is functional, cell-based. The following applies: dose 0.35-1.4 µM, DDE = dose-dependent effect.
For test [9], the system named is SW480. Kind of test: Anti-migratory activity against human SW480 cells assessed as downregulation of N-cadherin protein expression at 0.35 to 1.4 uM incubated for 24 hrs by immunoblotting assay. The test is classed as functional, cell-based. The settings on record: dose 0.35-1.4 µM. A general note: In western blotting, separated proteins are transferred to a membrane and probed.

Test [10] deals with HCT-116. The test can be described thus: Antimigratory activity against highly liver metastatic human HCT-116 cells assessed as downregulation of Snail protein expression at 0.075 to 0.3 uM incubated for 24 hrs by immunoblotting assay. The following applies: dose 0.075-0.3 µM. The test is classed as functional, cell-based.

SMILES strings stand for the structures. Activity calls are given as the source filed them. The rule behind the calls is not given here.

As for `C[C@@H]1\C=C/C=C/C=C\C=C\C=C\C(=O)C2=C(O)C(=O)C[C@@]2(C)/C=C/C=C\C=C/C(=O)NC1`, the inhibition result in the test with SW480 [1], in the test with HCT-116 [7] and in the test with SW480 [8] was “Dde” in each case. Besides, the Activity in the test with HCT-116 [2] stood at 62.85%; in the test with SW480 [3], 15.28%; with SW480 [4], 19.26%; with SW480 [5], 12.31%; in the test on SW480 [6] it was 0.19%. Besides, the outcome in the test with SW480 [9] and in the test on HCT-116 [10] was Active.
